Experimental data taken from a melting point compilation (Tetko et al.; mined from patent text by program, amines drawn as free bases though some values may be those of a salt).

Row | Compound | melting point [°C]
1 | CCN(CCc1ccccc1OCc1ccccc1)c1ccc(C(=O)O)cc1 | 175
2 | O=C1CCc2cc(C(=O)[C@H]3C[C@H]3C(=O)O)ccc2N1 (relative stereo) | 190 to 194
3 | O=c1c2cnn(CC3CO3)c2ncn1CC1CO1 (configuration not stated) | 90 to 95
4 | NNC(=O)N(NC(=O)CSC(=O)c1ccccc1)C(=O)CSC(=O)c1ccccc1 | 184 to 190
5 | COc1ccc(-c2nc(SCC(F)(F)F)[nH]c2-c2ccc(OC)cc2)cc1 | 119 to 120
6 | Cc1cccc2c1nc(-c1cccnc1)n2Cc1c(F)cccc1F | 186 to 188
7 | CCOC(=O)[C@H](Cc1cc(O)c(O)cc1I)NC=O | 131 to 132
8 | OC(COc1ccccc1-n1cccc1)CN1CCOCC1 (configuration not stated) | 81 to 82
9 | Cc1ccc(C(=O)N2CCOCC2)c(Nc2ccc3cn[nH]c3c2)n1 | 103 to 104
10 | Cc1c2ccccc2cc2[nH]c(S)nc12 | > 300
11 | CC(C)(C)OC(=O)N1CCC(S(C)(=O)=O)CC1 | 94 to 95
12 | N#CC(C#N)=C1N(CCCN2CCCC2)CCN1CCN1CCCC1 | 70 to 71
13 | CCCCCCc1cc2c(s1)NC(=O)CN=C2c1ccccc1OC | 130 to 132
14 | CC(C)[C@@H](CO)NS(=O)(=O)c1ccc(Cl)cc1 | 83 to 85
15 | COc1ccc2ccc(OC)c3c2c1CCC3CCNC(C)=O (configuration not stated) | 125
16 | CC(=O)C1=C(O)C(C(=O)C=Cc2ccc(O)cc2)C(=O)OC1=O (configuration not stated) | 194 to 196
17 | O=C1CNc2ncc(I)cc2N1Cc1c(Cl)cccc1Cl | > 200
18 | CC(C)(C)C(=O)Nc1ccccc1CC(O)c1ccccc1 (configuration not stated) | 183 to 184
19 | CCOC(=O)c1cnn(-c2ccc(OCCC(C)C)c(C#N)c2)c1 | 125 to 126
20 | C=CCNc1nc(NCC(C)(C)C)c2scc(C)c2n1 | 90 to 92
21 | N#Cc1cccc(OCc2ccccc2)c1 | 38 to 40
22 | CC(C)Oc1ccc(C(=O)[NH+]([O-])c2c(Cl)cncc2Cl)c2c1oc1ccccc12 (configuration not stated) | 247 to 248
23 | COC(=O)C(CCC(C(=O)OC)c1cc(OC)c(OC)c(OC)c1)c1cc(OC)c(OC)c(OC)c1 (configuration not stated) | 179 to 184
24 | Cn1c(=O)c2c(ncn2CCCOS(C)(=O)=O)n(C)c1=O | 112 to 113
25 | C#CCOCCn1cnc2cnc3ccccc3c21 | 124 to 126
26 | CC(C)(CO)NC(=O)c1nn(-c2c(F)cc(F)cc2F)c2c1C1CCC2C1 (configuration not stated) | 122 to 125

Row | Compound | melting point [°C]
27 | COc1ccsc1C(=O)C=C(C)C | 49 to 51
28 | FC(F)(F)c1ccc2[nH]nc(-c3ccccc3)c2c1 | 152
29 | COc1cc2c(cc1OC)CCNCC2 | 86 to 89
30 | CC(=CC(=O)c1ccncc1)N(C)C | 88 to 89
31 | COc1ccc(CCC(=O)CCC(Cc2ccc(OC)c(OC)c2)[N+](=O)[O-])cc1 (configuration not stated) | 87 to 89
32 | CNc1nc(C(=O)O)ccc1C(=O)OC | 152 to 153
33 | Cc1cc(C(=O)NCOC(=O)CO)ncc1C(c1cc(F)ccc1F)S(=O)(=O)c1ccc(F)cc1 (configuration not stated) | 84
34 | CC(C)CC(Cn1cc(Sc2ccccc2)c2ccccc21)N(O)C(N)=O (configuration not stated) | 57
35 | CCc1ncnc(O)c1Br | 175 to 177
36 | CS(=O)(=O)Nc1ccc(CCCOCCCCCCNCC(O)c2cc(Cl)c(N)c(Cl)c2)cc1 (configuration not stated) | 62 to 64
37 | Nc1ccc(F)cc1C(=O)c1ccccc1 | 112 to 113
38 | CC1CCc2c(N3CCCC3)ccc3c(=O)c(C(=O)O)cn1c23 (configuration not stated) | 170 to 174
39 | CCOCc1nc(C(C)(C)O)c(C(=O)O)n1Cc1ccc(-c2ccccc2C(=O)O)cc1 | 166 to 169
40 | COCCOC(=O)Nc1cc(N2CC=CCC2)nc(N)n1 | 136
41 | O=S(=O)(Oc1ccc2ccccc2c1-c1nnc(Cl)c2ccccc12)C(F)(F)F | 54 to 55
42 | CC(C)CCCC(C)CCOc1cc(CO)c(-c2ccccc2)cc1CO (configuration not stated) | 112 to 115
43 | CCN(C)c1nsc(NC(=O)NC)c1C#N | 175
44 | CCCN(CCC)C(=O)C(C)n1c(-c2ccc(Cl)cc2)nc2cccnc21 (configuration not stated) | 96 to 99
45 | COc1ccc(-c2nn(CC(C)C)c(=O)cc2-c2ccc(OC)c(F)c2)cc1 | 125
46 | CCOC(=O)C(N=Nc1ccccc1C(=O)c1ccccn1)NC(=O)CCl (configuration not stated) | 160 to 162
47 | COc1cc(CC(C#N)(C=O)C(OC)OC)cc(OC)c1OC (configuration not stated) | 118 to 122
48 | O=C(c1ccccc1)n1c(=O)c(F)cn(C2CC(O)C(CO)O2)c1=O (configuration not stated) | 126 to 127
49 | CC(C)(C)OC(=O)N1CCC(c2nc3cc(-c4ccc(S(C)(=O)=O)cc4F)cc(F)c3o2)CC1 | 155 to 158
50 | COc1ccc(C[C@H](N)[C@H](O)c2ccc(F)cc2)cc1 (racemic) | 78 to 79
51 | Oc1ccccc1C=Cc1nc2ccccc2s1 | 235 to 236
52 | O=C(O)c1ccc(-c2csc(-c3ccc(Cl)cc3)n2)cc1 | 284 to 285

Row | Compound | melting point [°C]
53 | Clc1cccc(-c2onc3ccc(Br)cc23)c1 | 163
54 | CCOc1ccc2[nH]cc(CC(C)(N)C(=O)OC)c2c1 (racemic) | 165 to 166
55 | Cc1nnc(-c2ccc3occ(-c4ccc(S(=O)C(F)(F)F)cc4)c3c2)o1 (configuration not stated) | 183 to 184
56 | CCOc1c(C)c(NC(=O)CC(C)(C)C)c(C)c2c1OCC2c1ccc(C(C)C)cc1 (configuration not stated) | 174 to 175
57 | O=C(O)CCCC[C@@H]1SC[C@H]2[C@@H]1N(Cc1ccccc1)C(=O)N2Cc1ccccc1 | 88 to 89
58 | CN(C)C1(C(N)=O)CCCCC1 | 65 to 69
59 | CCOC(OCC)c1ccccc1CN(CCn1ccc2oc(C)cc2c1=O)Cc1ccc2c(c1)N(C)C(=O)C(C)(C)C(=O)N2CC | 138 to 139
60 | O=C(O)C1CCC(=O)N1Cc1ccccc1C(F)(F)F (configuration not stated) | 139 to 141
61 | Cc1ncn(C(=O)Nc2cc(Cl)cc(Cl)c2)c1Cl | 137 to 139
62 | CCCCc1nc(Cl)c(COc2ccccn2)n1Cc1ccc(-c2ccccc2-c2nnn[nH]2)cc1 | 98 to 100
63 | O=C(CCC(=O)N1CCC(c2ccc(Cl)cc2)CC1)c1ccc2c(c1)CCN(CCn1cccc1)CC2 | 96 to 97
64 | COc1ccc(Cc2cc(C3CCN(C(=O)c4ccccc4)CC3)nc(N)n2)cc1 | 170 to 171
65 | CCOc1ccc2c(c1)n(C1CCCCC1)c(=O)n2S(=O)(=O)c1ccc(N(C)C)cc1OC | 220
66 | C=CCN(C(=O)OC(C)(C)C)c1cc(OC)c(-c2ccc(C[C@H](NC(=O)c3c(Cl)cccc3Cl)C(=O)O)cc2)c(OC)c1 | 138 to 139
67 | c1cc(-c2ccc3[nH]cc4c3c2C[C@@H](N(CC2CC2)CC2CC2)C4)on1 | 146 to 147
68 | CCN(CC)CC1CCCCN1CC(=O)N1c2ccccc2NC(=O)c2cscc21 (configuration not stated) | 163 to 164
69 | CCCCc1ncc(/C=C(\Cc2cccs2)C(=O)O)n1Cc1cccc(Cl)c1Cl | 184 to 185
70 | N#Cc1c[nH]cc1-c1ccc(Cl)cc1C(=O)c1ccccc1Cl | 182 to 184
71 | CCCN1C(=O)c2ccccc2C1(SCc1ccccc1)c1ccc(Cl)cc1 (configuration not stated) | 132 to 133
72 | COc1ccc(NN=C2CCC3(CC2)OCCO3)cc1 | 168 to 169
73 | CC(=O)OC1CCC2(C)C(CCC3C4CC(C)=C(C(C)=O)C4(C)CC(=O)C32)C1 (configuration not stated) | 200 to 208
74 | O=S(=O)(c1ccc(Cl)cc1)C(c1cc(F)ccc1F)C(O)CCCCO (configuration not stated) | 105 to 107
75 | O=c1cc(-c2ccccc2Cl)[nH]c(=O)n1-c1ccc(C(F)(F)F)cn1 | 281 to 283
76 | ClCCCCc1nnnn1C1CCCCC1 | 50 to 51
77 | COc1ccc(C(=O)C(Cl)=NO)cc1 | 118 to 125
78 | COc1cc(Cl)cc(Cl)c1C1=NC(C)(C)CO1 | 45

Row | Compound | melting point [°C]
79 | COc1ccc(-n2cc(/C=C(\C#N)C(=O)NS(C)(=O)=O)c(-c3ccc(Cl)c(F)c3)n2)cc1Cl | 280 to 282
80 | Cc1nc(Cl)c2c(c1O)COC2CCc1ccccc1 (configuration not stated) | 193
81 | Cn1c(C(F)(F)F)cc(=O)n(-c2ccc(Cl)c3nc(C(C)(C)C)oc23)c1=O | 146 to 148
82 | CS(=O)(=O)N(Cc1cccnc1)c1ccc(F)cc1 | 112 to 113
83 | CN1C(=O)C2(COc3cc4c(cc32)OCCO4)c2c(O)cccc21 (configuration not stated) | > 250
84 | Fc1ccc(-n2c3c(c4cc(F)ccc42)CN(CCc2ccc4ccccc4n2)CC3)cc1 | 201 to 203
85 | COc1cccc(-n2c(-c3sc(Nc4ccccc4)nc3-c3ccccc3)nc3ccccc3c2=O)c1 | 250 to 252
86 | COc1cccc2c1C(=O)c1c(OC)cc(C#N)cc1C2=O | 266 to 268
87 | CCOC(=O)Oc1ccc(S(=O)(=O)N2c3cc(F)ccc3-n3cccc3C2CC)cc1 (configuration not stated) | 96 to 97
88 | CC(C)C(=O)N[C@@H](CSC(=O)c1ccccc1)C(=O)NCCSC(=O)C(C)C | 155 to 157
89 | O=c1[nH]c2ccccc2c(=O)n1CCOCCO | 149 to 151
90 | O=C1COc2cc(F)c(F)cc2N1 | 214 to 219
91 | Cc1ccccc1C(=O)Nc1ccc(C(=O)N2Cc3ccccc3C(=O)c3ccccc32)cc1 | 115 to 119
92 | Cc1cccc2c(=O)cc(O)c(=O)[nH]c12 | 184 to 186
93 | COc1cccc(NC(=O)c2cccc([N+](=O)[O-])c2)c1 | 120 to 122
94 | CCOC(=O)c1c(COC(C)=O)[nH]c(=O)n1C(C)=O | 138 to 139
95 | COc1ccc(C)cc1NC(=O)Nc1ccc(C2=CCN(C(=O)Nc3ccc(OCCO)cc3Cl)CC2)cc1 | 117 to 120
96 | O=C(NC(Cc1ccccc1)C(=O)O)c1ccc2cc(OCc3ccccc3)ccc2c1 (configuration not stated) | 207
97 | Nc1ccccc1Oc1ncc(C(F)(F)F)cc1Cl | 133 to 135
98 | CCC(C)c1nn(-c2ccc(C(F)(F)F)cn2)cc1CCCO (configuration not stated) | 72 to 73
99 | O=C(CC1CSCCC1=O)c1ccc(F)cc1 (configuration not stated) | 112 to 114
100 | CC(C)(Oc1ccc2c(-c3ccc(Cl)cc3)noc2c1)C(=O)O | 132
101 | CC1OC(n2cnc3c(Nc4ccccc4)ccnc32)C(O)C1O (configuration not stated) | 219
102 | CC1(C)CCC(C)(C)c2cc(-c3cc4ccc(C(=O)O)cc4[nH]3)ccc21 | 215
